Results taken from ChEMBL document CHEMBL1155858, “Derivatives of (3S)-N-(biphenyl-2-ylmethyl)pyrrolidin-3-amine as selective noradrenaline reuptake inhibitors: Reducing P-gp mediated efflux by modulation of H-bond acceptor capacity” (Bioorg Med Chem Lett, 2008).

Assays:
[1] = molecular target: Sodium-dependent noradrenaline transporter (Homo sapiens, UniProt P23975); assay: Inhibition of [3H]nisoxetine reuptake at human NET expressed in HEK293 cells by SPA; type: cell-based
[2] = Metabolic stability in human liver microsomes assessed as intrinsic clearance; type: ADME, Microsome
[3] = molecular target: Sodium-dependent serotonin transporter (Homo sapiens, UniProt P31645); assay: Inhibition of [3H]citalopram uptake at human 5HTT expressed in HEK293 cells by SPA; type: cell-based
Chain of Sodium-dependent serotonin transporter (P31645 whole entry): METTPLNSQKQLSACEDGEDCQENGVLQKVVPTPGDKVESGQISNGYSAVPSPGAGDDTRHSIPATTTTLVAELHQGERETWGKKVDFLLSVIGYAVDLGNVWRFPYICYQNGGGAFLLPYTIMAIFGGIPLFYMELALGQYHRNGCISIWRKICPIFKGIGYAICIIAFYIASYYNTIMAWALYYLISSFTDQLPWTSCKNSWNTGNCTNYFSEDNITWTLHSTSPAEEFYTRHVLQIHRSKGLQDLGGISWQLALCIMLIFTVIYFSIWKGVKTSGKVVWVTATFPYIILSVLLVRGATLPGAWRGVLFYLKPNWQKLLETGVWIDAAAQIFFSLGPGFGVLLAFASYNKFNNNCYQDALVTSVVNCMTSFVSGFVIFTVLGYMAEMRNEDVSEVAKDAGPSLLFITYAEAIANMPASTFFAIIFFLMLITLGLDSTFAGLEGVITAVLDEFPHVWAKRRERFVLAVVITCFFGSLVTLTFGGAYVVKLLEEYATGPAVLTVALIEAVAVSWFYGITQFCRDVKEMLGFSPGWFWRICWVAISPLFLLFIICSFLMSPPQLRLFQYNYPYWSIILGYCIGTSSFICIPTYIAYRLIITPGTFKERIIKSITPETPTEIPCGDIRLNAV

[4] = molecular target: Cytochrome P450 2D6 (Homo sapiens, UniProt P10635); assay: Inhibition of CYP2D6; type: ADME
Chain of Cytochrome P450 2D6 (P10635 whole entry): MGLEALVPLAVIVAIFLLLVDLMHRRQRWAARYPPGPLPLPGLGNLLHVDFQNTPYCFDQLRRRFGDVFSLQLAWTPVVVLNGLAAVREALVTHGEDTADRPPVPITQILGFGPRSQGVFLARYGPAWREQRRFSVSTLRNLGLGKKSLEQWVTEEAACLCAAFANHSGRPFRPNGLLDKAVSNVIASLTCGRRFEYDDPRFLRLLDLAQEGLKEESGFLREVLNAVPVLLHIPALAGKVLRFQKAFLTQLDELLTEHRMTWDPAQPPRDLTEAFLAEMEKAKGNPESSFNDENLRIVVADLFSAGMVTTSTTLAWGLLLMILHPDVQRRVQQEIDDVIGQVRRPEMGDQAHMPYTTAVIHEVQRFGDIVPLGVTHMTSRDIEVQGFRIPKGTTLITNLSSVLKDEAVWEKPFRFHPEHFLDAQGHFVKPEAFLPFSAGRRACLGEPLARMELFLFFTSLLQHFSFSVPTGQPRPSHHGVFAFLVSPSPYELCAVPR

[5] = molecular target: Sodium-dependent dopamine transporter (Homo sapiens, UniProt Q01959); assay: Inhibition of [3H]dopamine reuptake at human DAT expressed in HEK293 cells by SPA; type: cell-based
Chain of Sodium-dependent dopamine transporter (Q01959 whole entry): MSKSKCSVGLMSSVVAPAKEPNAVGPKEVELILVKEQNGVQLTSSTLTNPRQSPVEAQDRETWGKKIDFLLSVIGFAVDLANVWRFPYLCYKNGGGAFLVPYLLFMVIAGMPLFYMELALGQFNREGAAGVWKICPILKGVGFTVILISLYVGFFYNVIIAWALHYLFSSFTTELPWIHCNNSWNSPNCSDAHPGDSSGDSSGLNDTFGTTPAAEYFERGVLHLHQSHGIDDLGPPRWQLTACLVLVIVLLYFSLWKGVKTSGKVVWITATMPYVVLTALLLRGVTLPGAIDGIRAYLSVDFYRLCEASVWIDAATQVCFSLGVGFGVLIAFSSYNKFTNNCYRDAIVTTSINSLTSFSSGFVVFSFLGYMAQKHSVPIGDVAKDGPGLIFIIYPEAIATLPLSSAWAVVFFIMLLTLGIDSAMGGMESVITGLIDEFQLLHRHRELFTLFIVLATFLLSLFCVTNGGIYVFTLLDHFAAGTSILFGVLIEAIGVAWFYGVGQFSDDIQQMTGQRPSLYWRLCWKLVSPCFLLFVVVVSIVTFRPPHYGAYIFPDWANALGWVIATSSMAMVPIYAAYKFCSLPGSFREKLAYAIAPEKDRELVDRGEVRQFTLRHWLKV

[6] = test system: Liver microsomes; assay: Metabolic stability in human liver microsomes; type: ADME, Microsome
[7] = molecular target: Cytochrome P450 3A4 (Homo sapiens, UniProt P08684); assay: Inhibition of CYP3A4; type: ADME
Chain of Cytochrome P450 3A4 (P08684 whole entry): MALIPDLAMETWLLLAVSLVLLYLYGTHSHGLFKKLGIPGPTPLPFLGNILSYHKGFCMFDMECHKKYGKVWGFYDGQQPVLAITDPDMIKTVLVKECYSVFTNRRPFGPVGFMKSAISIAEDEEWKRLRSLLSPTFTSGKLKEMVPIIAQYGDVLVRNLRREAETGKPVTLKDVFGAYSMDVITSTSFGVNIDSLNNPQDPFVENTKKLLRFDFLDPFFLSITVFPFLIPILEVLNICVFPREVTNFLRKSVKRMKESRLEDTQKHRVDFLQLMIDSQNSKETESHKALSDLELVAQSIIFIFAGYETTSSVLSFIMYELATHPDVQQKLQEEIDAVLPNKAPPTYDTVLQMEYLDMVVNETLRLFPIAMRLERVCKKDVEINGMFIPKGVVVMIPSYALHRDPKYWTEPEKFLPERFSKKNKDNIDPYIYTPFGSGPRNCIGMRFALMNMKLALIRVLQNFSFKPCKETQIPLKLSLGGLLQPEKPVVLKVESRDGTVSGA

[8] = Inhibition of L type calcium channel
[9] = molecular target: Voltage-gated inwardly rectifying potassium channel KCNH2 (Homo sapiens, UniProt Q12809); assay: Displacement of [3H]dofetilide from human ERG channel
Chain of Voltage-gated inwardly rectifying potassium channel KCNH2 (Q12809 whole entry): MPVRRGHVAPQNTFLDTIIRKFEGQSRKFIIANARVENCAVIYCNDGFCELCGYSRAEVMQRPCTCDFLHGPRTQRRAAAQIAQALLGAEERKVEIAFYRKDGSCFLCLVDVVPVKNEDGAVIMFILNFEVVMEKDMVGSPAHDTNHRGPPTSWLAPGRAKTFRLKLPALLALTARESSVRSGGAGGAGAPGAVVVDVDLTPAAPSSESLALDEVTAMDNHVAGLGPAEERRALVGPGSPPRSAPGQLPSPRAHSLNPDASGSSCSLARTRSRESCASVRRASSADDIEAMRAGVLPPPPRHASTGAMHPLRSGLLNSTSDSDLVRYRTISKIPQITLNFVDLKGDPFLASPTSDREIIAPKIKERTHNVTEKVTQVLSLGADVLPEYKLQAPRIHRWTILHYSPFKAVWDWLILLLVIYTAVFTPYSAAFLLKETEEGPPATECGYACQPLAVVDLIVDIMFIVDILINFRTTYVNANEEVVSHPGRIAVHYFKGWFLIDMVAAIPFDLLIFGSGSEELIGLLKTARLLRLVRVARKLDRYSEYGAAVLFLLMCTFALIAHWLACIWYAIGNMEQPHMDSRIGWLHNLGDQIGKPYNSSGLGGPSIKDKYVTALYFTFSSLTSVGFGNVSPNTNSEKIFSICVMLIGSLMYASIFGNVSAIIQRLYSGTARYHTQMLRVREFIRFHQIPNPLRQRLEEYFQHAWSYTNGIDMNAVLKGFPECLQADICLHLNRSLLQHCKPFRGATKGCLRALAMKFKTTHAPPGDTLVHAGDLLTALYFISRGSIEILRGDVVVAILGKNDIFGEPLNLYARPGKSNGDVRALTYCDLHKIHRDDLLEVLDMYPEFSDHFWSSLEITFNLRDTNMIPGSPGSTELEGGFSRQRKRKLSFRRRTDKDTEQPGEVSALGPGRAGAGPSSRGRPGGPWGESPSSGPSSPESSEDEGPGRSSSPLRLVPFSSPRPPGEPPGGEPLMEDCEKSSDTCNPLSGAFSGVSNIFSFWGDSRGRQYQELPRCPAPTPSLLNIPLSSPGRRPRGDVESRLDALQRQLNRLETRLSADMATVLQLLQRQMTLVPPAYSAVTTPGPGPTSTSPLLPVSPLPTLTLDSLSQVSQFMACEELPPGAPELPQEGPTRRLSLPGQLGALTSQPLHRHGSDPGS

[10] = Inhibition of sodium channel site 2
[11] = organism: Homo sapiens; assay: Selectivity for human NET over human SERT
[12] = Distribution coefficient, log D at pH 7.4; type: physicochemical; settings: octanol/water
[13] = organism: Homo sapiens; assay: Selectivity for human NET over human DAT
[14] = Dissociation constant, pKa of the compound; type: physicochemical
[15] = molecular target: Cytochrome P450 2C9 (Homo sapiens, UniProt P11712); assay: Inhibition of CYP2C9; type: ADME
Chain of Cytochrome P450 2C9 (P11712 whole entry): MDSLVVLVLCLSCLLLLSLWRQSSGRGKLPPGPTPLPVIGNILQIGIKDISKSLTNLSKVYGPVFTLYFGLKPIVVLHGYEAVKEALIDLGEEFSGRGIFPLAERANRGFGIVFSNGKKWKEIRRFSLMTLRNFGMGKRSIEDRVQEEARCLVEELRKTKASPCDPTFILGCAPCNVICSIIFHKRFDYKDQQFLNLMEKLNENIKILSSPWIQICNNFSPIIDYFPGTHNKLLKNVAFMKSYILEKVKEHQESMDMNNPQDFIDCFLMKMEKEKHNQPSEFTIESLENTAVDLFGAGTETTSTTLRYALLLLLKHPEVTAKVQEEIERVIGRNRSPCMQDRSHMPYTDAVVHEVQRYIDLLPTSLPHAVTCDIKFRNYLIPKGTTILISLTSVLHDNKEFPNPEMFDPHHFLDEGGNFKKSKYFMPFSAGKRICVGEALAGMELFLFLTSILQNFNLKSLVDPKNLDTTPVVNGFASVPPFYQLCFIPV

[16] = Apparent permeability from apical to basolateral side of the MDCK cells expressing MDR1 gene; type: ADME, cell-based, Canis lupus familiaris; settings: dog
[17] = test system: Hepatocyte; assay: Metabolic stability in human hepatocytes assessed as intrinsic clearance; type: ADME, cell-based, Liver
[18] = molecular target: T1, Cytochrome P450 1A2 (Homo sapiens, UniProt P05177); assay: Inhibition of CYP1A2; type: ADME
T1 sequence (P05177 whole entry): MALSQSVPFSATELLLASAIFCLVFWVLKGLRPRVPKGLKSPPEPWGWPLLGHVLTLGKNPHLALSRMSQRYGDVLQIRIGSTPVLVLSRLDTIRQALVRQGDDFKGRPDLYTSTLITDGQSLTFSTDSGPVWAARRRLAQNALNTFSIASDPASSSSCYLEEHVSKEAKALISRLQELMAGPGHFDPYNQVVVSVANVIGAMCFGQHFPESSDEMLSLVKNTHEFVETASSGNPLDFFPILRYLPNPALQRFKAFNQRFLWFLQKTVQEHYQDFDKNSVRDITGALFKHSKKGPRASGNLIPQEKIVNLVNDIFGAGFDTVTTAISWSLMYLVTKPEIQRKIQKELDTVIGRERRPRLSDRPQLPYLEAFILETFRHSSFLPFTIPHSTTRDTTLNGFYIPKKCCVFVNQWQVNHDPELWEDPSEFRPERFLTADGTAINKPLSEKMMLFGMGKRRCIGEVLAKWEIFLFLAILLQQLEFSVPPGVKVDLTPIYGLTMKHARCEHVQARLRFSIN

[19] = Ratio of permeability from basolateral to apical side over apical to basolateral side of MDCK cells expressing MDR1 gene; settings: dog
[20] = Apparent permeability from basolateral to apical side of the MDCK cells expressing MDR1 gene; type: ADME, cell-based, Canis lupus familiaris; settings: dog

Chain of Sodium-dependent noradrenaline transporter (P23975 whole entry): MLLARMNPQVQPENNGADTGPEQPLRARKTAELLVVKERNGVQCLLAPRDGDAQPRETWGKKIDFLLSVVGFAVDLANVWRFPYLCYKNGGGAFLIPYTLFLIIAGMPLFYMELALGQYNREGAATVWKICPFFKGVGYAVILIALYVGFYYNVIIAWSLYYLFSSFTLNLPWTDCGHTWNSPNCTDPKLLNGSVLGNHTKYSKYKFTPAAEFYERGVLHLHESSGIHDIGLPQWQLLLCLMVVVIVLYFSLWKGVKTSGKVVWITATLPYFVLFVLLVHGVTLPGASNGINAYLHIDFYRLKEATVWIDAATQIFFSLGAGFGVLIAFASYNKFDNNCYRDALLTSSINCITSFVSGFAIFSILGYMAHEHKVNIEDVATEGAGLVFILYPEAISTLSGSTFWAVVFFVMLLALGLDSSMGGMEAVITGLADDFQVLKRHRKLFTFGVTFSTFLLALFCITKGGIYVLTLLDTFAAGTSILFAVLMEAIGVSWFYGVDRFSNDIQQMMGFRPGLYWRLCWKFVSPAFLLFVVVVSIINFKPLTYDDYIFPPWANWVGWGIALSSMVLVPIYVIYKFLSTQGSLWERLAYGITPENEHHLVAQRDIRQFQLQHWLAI

Row | Compound | Ki [1] [nM] | microsomal CLint [2] [µL/min/mg] | Ki [3] [nM] | Ki [5] [nM] | further results
1 | CC(=O)N(Cc1ccccc1-c1ccccc1)[C@H]1CCNC1 | 124 | < 7 | 5810 | – | –
2 | CCOC(=O)N(Cc1ccccc1Oc1ccccc1)[C@H]1CCNC1 | 23 | 21 | 444 | 1900 | IC50 [4]: 420 nM
3 | CCC(=O)N(Cc1ccccc1-c1ccccc1)[C@H]1CCNC1 | 30 | < 7 | 2680 | – | –
4 | c1ccc(-c2ccccc2CN[C@H]2CCNC2)cc1 | 271 | – | 1070 | 2470 | –
5 | CCCS(=O)(=O)N(Cc1ccccc1-c1ccccc1)[C@H]1CCNC1 | 7 | 12 | 5680 | 2070 | IC50 [4]: 185 nM
6 | Clc1cccc(CN(C2CCOCC2)[C@H]2CCNC2)c1Cl | – | – | – | – | t1/2 [6]: 1.67 h
7 | O=CN(Cc1ccccc1-c1ccccc1)[C@H]1CCNC1 | 118 | – | 869 | 2130 | –
8 | CCOC(=O)N(Cc1ccccc1C(C)C)[C@H]1CCNC1 | 49 | – | 764 | 3340 | –
9 | c1ccc(-c2ccccc2CN(C2CCOCC2)[C@H]2CCNC2)cc1 | – | – | – | – | t1/2 [6]: > 2 h
10 | CSc1ccccc1CN([C@H]1CCNC1)S(C)(=O)=O | 86 | < 7 | 1250 | 2950 | –
11 | CC(C)CC(=O)N(Cc1ccccc1-c1ccccc1)[C@H]1CCNC1 | 30 | 9 | 415 | – | –
12 | CCOC(=O)N(Cc1ccccc1SC)[C@H]1CCNC1 | 89 | – | 353 | – | –
13 | CC(C)C(=O)N(Cc1ccccc1C(F)(F)F)[C@H]1CCNC1 | 63 | < 7 | 133 | – | –
14 | CC(C)C(=O)N(Cc1ccccc1C1CC1)[C@H]1CCNC1 | 74 | – | 124 | 2920 | –
15 | CS(=O)(=O)N(Cc1ccccc1Oc1ccccc1)[C@H]1CCNC1 | 96 | – | 2700 | 2550 | –
16 | CS(=O)(=O)N(Cc1ccccc1-c1ccccc1)[C@H]1CCNC1 | 5 | 7 | 4120 | 2670 | IC50 [7]: > 3000 nM; Ki [8]: 1900 nM; Ki [9]: > 2700 nM; Ki [10]: 1900 nM; Ratio Ki [11]: > 100; logD [12]: 0.6; IC50 [4]: 3100 nM; Ratio Ki [13]: > 100; pKa [14]: 8.9; IC50 [15]: > 3000 nM; Papp A→B [16]: 10 ×10⁻⁶ cm/s; CL [17]: < 5 µL/min/mg; IC50 [18]: > 3000 nM; efflux ratio [19]: 5.1; Papp B→A [20]: 51 ×10⁻⁶ cm/s
17 | CCS(=O)(=O)N(Cc1ccccc1-c1ccccc1)[C@H]1CCN(C)C1 | 466 | – | > 10000 | – | –
18 | CCOC(=O)N(Cc1ccccc1C(F)(F)F)[C@H]1CCNC1 | 46 | – | 427 | 3210 | –
